Assay results published in patent publication EP0495226B1, “3-Aryl-5-alkylthio-4H-1,2,4-triazoles for treatment of hyperreflexia due to spinal trauma” (priority 1990, dated 1992).
Read-outs that look alike come from different tables or passages of the source.

What was measured:
[1] = test system: heightened spontaneous hind limb movements; assay: Spontaneous hind limb reflex activity in spinally transected rats (hyperreflexia); assay type: in vivo; settings: for Integrated Activity, % of Control: ip, 30 minutes after dosing, spinally transected rats; for muscle spasticity: intraperitoneally
Experimental: The effectiveness of the compounds of this invention for treating muscle spasticity resulting from spinal trauma was tested in rats with heightened spontaneous hind limb movements. Four to six weeks before testing, anesthetized rats were spinally transected at the mid-thoracic level, resulting in this form of spontaneous limb activity. 4-Methyl-3-phenyl-5-methylsulfonyl-4H-1,2,4-triazole or clonidine were given intraperitoneally, and after 30-minutes reflex activity was measured in treated animals and untreated controls by a computerized apparatus designed to record, integrate and analyze this activity. […]

[2] = test system: strychnine-induced seizures; assay: animal or person; assay type: in vivo, mice; settings: for ED50: Mus musculus, read-out: ED₅₀
Experimental: Groups of 10 to 20 male mice are administered one or more doses of test compound in an appropriate vehicle or, for comparison, the vehicle alone. At a selected time thereafter, strychnine sulfate, prepared as a solution in distilled water, is administered intraperitoneally at a dose of 2.7 mg/kg. […] Absence of tonic extension for greater than 15 minutes after strychnine administration is considered significant protection.

Cn1c(-c2ccccc2)nnc1S(C)(=O)=O [4-Methyl-3-phenyl-5-methylsulfonyl-4H-1,2,4-triazole]
Integrated Activity, % of Control ([1]; 5.0 mg/kg): 137 ± 10 % of Control
Integrated Activity, % of Control ([1]; 10.0 mg/kg): 42.9 ± 12.7 % of Control
Integrated Activity, % of Control ([1]; 20.0 mg/kg): 75.3 ± 19.3 % of Control
Integrated Activity, % of Control ([1]; 40.0 mg/kg): 51.3 ± 11.9 % of Control
muscle spasticity ([1]; rats treated with more than 5 mg/kg): substantial reduction
ED50 ([2]; ip): 12.8 mg/kg
ED50 ([2]; po): 7.3 mg/kg

CCSc1nnc(-c2ccccc2F)n1C [4-methyl-3-(2-fluorophenyl)-5-ethylthio-4H-1,2,4-triazole]
ED50 ([2]; ip): 18.6 mg/kg
ED50 ([2]; po): 15.1 mg/kg

CC[S+]([O-])c1nnc(-c2ccccc2)n1C (stereo not drawn) [4-methyl-3-phenyl-5-ethylsulfinyl-4H-1,2,4-triazole]
ED50 ([2]; ip): 14.4 mg/kg
ED50 ([2]; po): 8.1 mg/kg

CCS(=O)(=O)c1nnc(-c2ccccc2)n1C [4-methyl-3-phenyl-5-ethylsulfonyl-4H-1,2,4-triazole]
ED50 ([2]; ip): 19.3 mg/kg
ED50 ([2]; po): 8.5 mg/kg

Clc1cccc(Cl)c1N=C1NCCN1 [Clonidine, clonidine, reference compound]
Integrated Activity, % of Control ([1]; 3.1 µg/kg): 130.2 ± 43.9 % of Control
Integrated Activity, % of Control ([1]; 12.5 µg/kg): 50.4 ± 9.8 % of Control
Integrated Activity, % of Control ([1]; 50.0 µg/kg): 32.5 ± 9.5 % of Control
muscle spasticity ([1]; rats treated with more than 3.1 µg/kg): substantial reduction

CN1C(=O)CN=C(c2ccccc2)c2cc(Cl)ccc21 [Diazepam, reference compound]
ED50 ([2]; ip): 1.2 mg/kg

Clc1ccc2nsnc2c1NC1=NCCN1 [Tizanidine, reference compound]
maximal protection ([2]; at 3.1 mg/kg i.p., doses of up to 50 mg/kg do not cause a greater effect, mice): 60%

NCC(CC(=O)O)c1ccc(Cl)cc1 (stereo not drawn) [baclofen, reference compound]
antagonism of strychnine-induced seizures ([2]; dosage range of from 12.5 to 200 mg/kg i.p., mice): over 50%
protection ([2]; no dose (12.5 to 200 mg/kg i.p.) causes 100% protection, mice): < 100%
